# Assay results published in the supplement of paper PMC10307832.
# Tests used:
# Experiment in all cases: relative viability (nuclei count vs DMSO), 5 days (fraction); higher = more cells survive
# [1] = compound: COc1cc2nc(N3CCCN(C)CC3)nc(NC3CCN(Cc4ccccc4)CC3)c2cc1OC + CC(=O)c1c(C)c2cnc(Nc3ccc(N4CCNCC4)cn3)nc2n(C2CCCC2)c1=O [Palbociclib] (partner 0.5 µM)
# In short: (§1)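 The day after seeding in 1536-well plates, lung cancer cell lines were treated by pin tool with a single drug, or with a fixed anchor-drug dose together with five library-drug doses (not always all listed) in √10 steps. After 5 days, a combined fix-and-stain solution (final 0.05% Triton X-100, 1% formaldehyde, 1 ug/ml Hoechst) was added. Nuclei counted on 4× images gave relative viability as treated counts over vehicle counts, reported as the median of duplicate plates.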
# [2] = compound: COc1cc2nc(N3CCCN(C)CC3)nc(NC3CCN(Cc4ccccc4)CC3)c2cc1OC + CC1(C)CCC(c2ccc(Cl)cc2)=C(CN2CCN(c3ccc(C(=O)NS(=O)(=O)c4ccc(N[C@H](CCN5CCOCC5)CSc5ccccc5)c(S(=O)(=O)C(F)(F)F)c4)cc3)CC2)C1 [Navitoclax] (partner 0.5 µM)
# In short: as §1
# AZD6482 + Crizotinib = compound: Cc1cc([C@@H](C)Nc2ccccc2C(=O)O)c2nc(N3CCOCC3)cc(=O)n2c1 [AZD6482] + C[C@@H](Oc1cc(-c2cnn(C3CCNCC3)c2)cnc1N)c1c(Cl)ccc(F)c1Cl [Crizotinib] (partner 1 µM)
# In short: as §1
# AZD6482 + Linsitinib = compound: Cc1cc([C@@H](C)Nc2ccccc2C(=O)O)c2nc(N3CCOCC3)cc(=O)n2c1 [AZD6482] + C[C@]1(O)C[C@@H](c2nc(-c3ccc4ccc(-c5ccccc5)nc4c3)c3c(N)nccn32)C1 [Linsitinib] (partner 1 µM)
# In short: as §1
Cell Line,relative viability ([1]; first compound 0.2 µM),relative viability ([1]; first compound 0.6325 µM),relative viability ([1]; first compound 2 µM),relative viability ([1]; first compound 6.325 µM),relative viability ([2]; first compound 0.2 µM),relative viability ([2]; first compound 0.6325 µM),relative viability ([2]; first compound 2 µM),relative viability ([2]; first compound 6.325 µM),relative viability (AZD6482 + Crizotinib; first compound 0.08 µM),relative viability (AZD6482 + Crizotinib; first compound 0.253 µM),relative viability (AZD6482 + Crizotinib; first compound 0.8 µM),relative viability (AZD6482 + Crizotinib; first compound 2.53 µM),relative viability (AZD6482 + Crizotinib; first compound 8 µM),relative viability (AZD6482 + Linsitinib; first compound 0.08 µM),relative viability (AZD6482 + Linsitinib; first compound 0.253 µM),relative viability (AZD6482 + Linsitinib; first compound 0.8 µM),relative viability (AZD6482 + Linsitinib; first compound 2.53 µM),relative viability (AZD6482 + Linsitinib; first compound 8 µM)
LU99A,0.379,0.38,0.371,0.412,0.899,0.689,0.625,0.815,0.609,0.495,0.591,0.466,0.471,0.445,0.44,0.434,0.331,0.361
LXF-289,0.583,0.603,0.615,0.586,0.894,0.938,1.01,0.905,0.813,0.837,0.898,0.794,0.736,0.993,1,0.971,0.806,0.781
NCI-H23,0.475,0.522,0.521,0.415,0.757,0.882,1.02,0.722,0.444,0.426,0.481,0.369,0.417,0.532,0.477,0.533,0.338,0.57
NCI-H322M,0.468,0.531,0.435,0.481,1.12,1.12,1.19,1.21,0.769,0.826,0.79,0.627,0.741,0.718,0.601,0.707,0.355,0.651
NCI-H441,0.191,0.219,0.236,0.207,0.591,,0.831,0.277,0.651,0.689,0.782,0.443,0.507,0.459,0.499,0.554,0.323,0.531
NCI-H460,0.101,0.237,0.084,0.0622,1.16,1.13,1.17,0.754,0.874,0.644,0.99,0.6,0.471,0.717,0.703,0.783,0.306,0.206
NCI-H520,0.168,0.259,0.25,0.148,1.21,0.89,0.989,0.867,0.623,0.615,0.523,,0.4,0.773,0.623,0.59,,0.412
NCI-H647,0.336,0.457,0.348,0.213,1.07,1.18,1.32,0.964,0.902,,0.748,0.479,0.648,0.877,,0.739,0.7,0.659
NCI-H727,0.617,0.656,0.571,0.632,0.495,0.517,0.381,0.225,0.684,0.971,0.864,,0.824,0.203,0.296,0.284,,0.281
